Experimental data reported in patent US20060069132A1, “Azolecarboxamide herbicides” (priority 2004, published 2006).

Experiments:
lambsquarters = assay: Test B pre-/postemergence herbicide test; assay type: in vivo, Chenopodium album
How it was run: (§1)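 Herbicidal effect was judged by eye on a 0–100 scale after plants stood 13 to 15 days in the greenhouse following pre- or postemergence treatment with surfactant-containing formulations.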

Surinam grass = assay: Test B pre-/postemergence herbicide test; assay type: in vivo, Urochloa decumbens
How it was run: as §1

morningglory [1] = assay: Test B pre-/postemergence herbicide test; assay type: in vivo, Ipomoea coccinea
How it was run: (§2)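 Greenhouse pot assay with simultaneous preemergence (treated seed) and postemergence (2–18 cm seedlings) applications of surfactant-containing, non-phytotoxic solvent formulations. Response scored visually 13–15 days later on a 0–100 scale, 100 meaning complete control.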

blackgrass = assay: Test B postemergence herbicide test; assay type: in vivo, Alopecurus myosuroides; conditions: scale 0 (no effect) to 100 (complete control)
How it was run: (§3)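 Greenhouse test; postemergence application to plants at 1–4 leaves (2–18 cm); paddy species at 2 leaves; evaluated visually vs controls at 13–15 days; scale 0–100 (100 = complete control).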

large crabgrass [2] = assay: Test A pre-/postemergence herbicide test; assay type: in vivo, Digitaria sanguinalis; conditions: for Plant response rating, Crabgrass, Large: Postemergence; for Crabgrass, Large plant response rating: Preemergence
How it was run: (§4)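 Seeds sown in sandy loam received a preemergence directed soil spray of compound in non-phytotoxic solvent with surfactant; postemergence plants (2–10 cm, one- to two-leaf stage) were sprayed to runoff at the same time. After ~10 days in greenhouse, injury was rated visually versus untreated controls (0 = no effect, 100 = complete control).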

morningglory [3] = assay: Test A pre-/postemergence herbicide test; assay type: in vivo, Ipomoea spp.; conditions: for Plant response rating, Morningglory: Postemergence; for Morningglory plant response rating: Preemergence
How it was run: as §4

velvetleaf [4] = assay: Test B pre-/postemergence herbicide test; assay type: in vivo, Abutilon theophrasti
How it was run: as §1

giant foxtail [5] = assay: Test B pre-/postemergence herbicide test; assay type: in vivo, Setaria faberi
How it was run: as §1

[6] = tested on: small flower umbrella sedge; assay: Test B flooded paddy test; assay type: in vivo, Cyperus difformis; conditions: 1000 g ai/ha, visual rating, scale 0 to 100 (0 no effect, 100 complete control), 13 to 15 days
How it was run: as §3

rice [7] = assay: Test B pre-/postemergence herbicide test; assay type: in vivo, Oryza sativa; conditions: preemergence, 125 g ai/ha; 0 to 100 scale, 0 is no effect, 100 is complete control
How it was run: as §1

large crabgrass [8] = assay: Test B pre-/postemergence herbicide test; assay type: in vivo, Digitaria sanguinalis
How it was run: as §1

velvetleaf [9] = assay: Test A pre-/postemergence herbicide test; assay type: in vivo, Abutilon theophrasti; conditions: for Velvetleaf plant response rating: Preemergence, visual rating, 0 to 100 scale (0 no effect, 100 complete control)
How it was run: as §4

wild oat = assay: Test B postemergence herbicide test; assay type: in vivo, Avena fatua; conditions: scale 0 (no effect) to 100 (complete control)
How it was run: (§5)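 Read-out: visual comparison with controls, scored 0 to 100, where 100 means complete control and 0 no effect. Formulated chemicals were applied postemergence to plants 2–18 cm tall (1- to 4-leaf), or to flooded-paddy plants at the 2-leaf stage, then held 13 to 15 days under glass.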

barnyardgrass [10] = assay: Test B flooded paddy test; assay type: in vivo, Echinochloa crus-galli; conditions: 1000 g ai/ha, visual rating, scale 0 to 100 (0 no effect, 100 complete control), 13 to 15 days
How it was run: as §3

ducksalad = assay: Test B flooded paddy test; assay type: in vivo, Heteranthera limosa; conditions: 1000 g ai/ha, visual rating, scale 0 to 100 (0 no effect, 100 complete control), 13 to 15 days
How it was run: as §3

cocklebur = assay: Test B pre-/postemergence herbicide test; assay type: in vivo, Xanthium strumarium
How it was run: as §2

barnyardgrass [11] = assay: Test B pre-/postemergence herbicide test; assay type: in vivo, Echinochloa crus-galli
How it was run: as §2

giant foxtail [12] = assay: Test A pre-/postemergence herbicide test; assay type: in vivo, Setaria faberi; conditions: for Plant response rating, Foxtail, Giant: Postemergence; for Foxtail, Giant plant response rating: Preemergence
How it was run: as §4

redroot pigweed = assay: Test A pre-/postemergence herbicide test; assay type: in vivo, Amaranthus retroflexus; conditions: for Plant response rating, Pigweed: Postemergence; for Pigweed plant response rating: Preemergence
How it was run: as §4

wheat = assay: Test B postemergence herbicide test; assay type: in vivo, Triticum aestivum; parameters: key to Wheat plant response rating: 0 = no effect, 100 = complete control; conditions: scale 0 (no effect) to 100 (complete control)
How it was run: as §5

barnyardgrass [13] = assay: Test A pre-/postemergence herbicide test; assay type: in vivo, Echinochloa crus-galli; conditions: for Plant response rating, Barnyardgrass: Postemergence; for Barnyardgrass plant response rating: Preemergence
How it was run: as §4

corn = assay: Test B pre-/postemergence herbicide test; assay type: in vivo, Zea mays
How it was run: as §1

rice [14] = assay: Test B flooded paddy test; assay type: in vivo, Oryza sativa; conditions: 1000 g ai/ha, visual rating, scale 0 to 100 (0 no effect, 100 complete control), 13 to 15 days
How it was run: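 Treated at 2-leaf (paddy) or 1–4-leaf, 2–18 cm (postemergence); greenhouse 13–15 d; visual score vs control, 0 none to 100 complete control; dash = not tested.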

pigweed = assay: Test B pre-/postemergence herbicide test; assay type: in vivo, Amaranthus retroflexus
How it was run: as §1

[15] = Postemergence, 500 g ai/ha, visual rating after 13 to 15 days, scale 0 (no effect) to 100 (complete control)
[16] = postemergence, 125 g ai/ha, visual rating, scale 0 (no effect) to 100 (complete control)
[17] = preemergence, 125 g ai/ha, 0 to 100 scale, 0 is no effect, 100 is complete control
[18] = Postemergence, 500 g ai/ha, visual rating after 13 to 15 days
[19] = postemergence, 125 g ai/ha, visual rating
[20] = 500 g ai/ha, 0 to 100 scale, 0 no effect, 100 complete control
[21] = 2000 g ai/ha, 0 to 100 scale, 0 no effect, 100 complete control
[22] = 500 g ai/ha, visual rating, 0 to 100 scale (0 no effect, 100 complete control)
[23] = Preemergence, 500 g ai/ha, scale 0 to 100

## CCn1nc(C(C)(C)C)cc1C(=O)Nc1cccc2c1CCN(C1CCCC1)C2=O [Compound 66]
lambsquarters; [15]
  Plant response rating, Lambsquarters: 70
lambsquarters; [16]
  Lambsquarters plant response rating: 60
lambsquarters; [17]
  Plant response rating, Lambsquarters: 0
Surinam grass; [15]
  Plant response rating, Surinam Grass: 10
Surinam grass; [16]
  Surinam Grass plant response rating: 10
Surinam grass; [17]
  Plant response rating, Surinam Grass: 0
Morningglory [1]; [15]
  Plant response rating, Morningglory: 20
Morningglory [1]; [16]
  Morningglory plant response rating: 20
Morningglory [1]; [17]
  Plant response rating, Morningglory: 0
blackgrass; [18]
  Plant response rating, Blackgrass: 20
blackgrass; [19]
  Blackgrass plant response rating: 0
Large crabgrass [2]; [20]
  Plant response rating, Crabgrass, Large: 0
Large crabgrass [2]; [21]
  Plant response rating, Crabgrass, Large: 0
  Crabgrass, Large plant response rating: 0
Large crabgrass [2]; [22]
  Crabgrass, Large plant response rating: 0
Morningglory [3]; [20]
  Plant response rating, Morningglory: 0
Morningglory [3]; [21]
  Plant response rating, Morningglory: 0
  Morningglory plant response rating: 0
Morningglory [3]; [22]
  Morningglory plant response rating: 0
Velvetleaf [4]; [15]
  Plant response rating, Velvetleaf: 10
Velvetleaf [4]; [16]
  Velvetleaf plant response rating: 10
Velvetleaf [4]; [17]
  Plant response rating, Velvetleaf: 0
Giant foxtail [5]; [15]
  Plant response rating, Foxtail, Giant: 20
Giant foxtail [5]; [23]
  Foxtail, Giant plant response rating: 10
Giant foxtail [5]; [16]
  Foxtail, Giant plant response rating: 0
Giant foxtail [5]; [17]
  Plant response rating, Foxtail, Giant: 0
[6]
  Sedge, Umbrella plant response rating: 10
Rice [7]
  Plant response rating, Rice: 0
Large crabgrass [8]; [15]
  Plant response rating, Crabgrass, Large: 10
Large crabgrass [8]; [23]
  Crabgrass, Large plant response rating: 10
Large crabgrass [8]; [16]
  Crabgrass, Large plant response rating: 0
Large crabgrass [8]; [17]
  Plant response rating, Crabgrass, Large: 0
Velvetleaf [9]; Postemergence, 2000 g ai/ha, 0 to 100 scale, 0 no effect, 100 complete control
  Plant response rating, Velvetleaf: 0
Velvetleaf [9]; 500 g ai/ha
  Velvetleaf plant response rating: 0
Velvetleaf [9]; 2000 g ai/ha
  Velvetleaf plant response rating: 0
Wild oat; [18]
  Plant response rating, Oat, Wild: 10
Wild oat; [19]
  Oat, Wild plant response rating: 10
Barnyardgrass [10]
  Barnyardgrass plant response rating: 10
ducksalad
  Ducksalad plant response rating: 0
cocklebur; [15]
  Plant response rating, Cocklebur: 30
cocklebur; [23]
  Cocklebur plant response rating: 0
cocklebur; [16]
  Cocklebur plant response rating: 20
cocklebur; [17]
  Plant response rating, Cocklebur: 0
Barnyardgrass [11]; [15]
  Plant response rating, Barnyardgrass: 10
Barnyardgrass [11]; [23]
  Barnyardgrass plant response rating: 30
Barnyardgrass [11]; [16]
  Barnyardgrass plant response rating: 0
Barnyardgrass [11]; [17]
  Plant response rating, Barnyardgrass: 0
Giant foxtail [12]; [20]
  Plant response rating, Foxtail, Giant: 0
Giant foxtail [12]; [21]
  Plant response rating, Foxtail, Giant: 0
  Foxtail, Giant plant response rating: 0
Giant foxtail [12]; [22]
  Foxtail, Giant plant response rating: 0
Redroot pigweed; [20]
  Plant response rating, Pigweed: 10
Redroot pigweed; [21]
  Plant response rating, Pigweed: 10
  Pigweed plant response rating: 0
Redroot pigweed; [22]
  Pigweed plant response rating: 0
wheat; [18]
  Plant response rating, Wheat: 10
wheat; [19]
  Wheat plant response rating: 0
Barnyardgrass [13]; [20]
  Plant response rating, Barnyardgrass: 0
Barnyardgrass [13]; [21]
  Plant response rating, Barnyardgrass: 0
  Barnyardgrass plant response rating: 20
Barnyardgrass [13]; [22]
  Barnyardgrass plant response rating: 0
corn; [15]
  Plant response rating, Corn: 20
corn; [23]
  Corn plant response rating: 0
corn; [16]
  Corn plant response rating: 10
corn; [17]
  Plant response rating, Corn: 0
Rice [14]
  Rice plant response rating: 0
pigweed; [15]
  Plant response rating, Pigweed: 30
pigweed; [16]
  Pigweed plant response rating: 20
pigweed; [17]
  Plant response rating, Pigweed: 0
